# In patent US20090275610A1, “TRICYCLIC OPIOID MODULATORS” (priority 2005, published 2009):
# pEC50: −log10 of the molar value. Like-named read-outs stand apart in the source and are kept apart here.
# Legend:
# [1] = target: T1, delta opioid receptor (Rattus norvegicus, UniProt P33533); assay: Rat brain delta opioid receptor binding assay; settings: rat forebrain membranes, [3H]DPDPE or [3H]naltrindole, 25° C., 2.5 h
# T1 construct: the forebrains were homogenized in Tris buffer in a Teflon®-glass homogenizer; from tissue; host or cells: forebrain of male Wistar rats (particulate membrane preparation)
# Experimental: Rat Brain Delta Opioid Receptor Binding Assay
# (§1) Procedure: Male, Wistar rats (150-250 g, VAF, Charles River, Kingston, N.Y.) were killed by CO2, and their brains removed and placed immediately in ice cold Tris HCl buffer (50 mM, pH 7.4). The forebrains were separated from the remainder of the brain by a coronal transection, beginning dorsally at the colliculi and passing ventrally through the midbrain-pontine junction. After dissection, the forebrains were homogenized in Tris buffer in a Teflon®-glass homogenizer. The homogenate was diluted to a concentration of 1 g of forebrain tissue per 80 mL Tris and centrifuged at 39,000×g for 10 min. The pellet was resuspended in the same volume of Tris buffer containing 5 mM MgCl2 with several brief pulses from a Polytron homogenizer. This particulate preparation was used for the delta opioid binding assays.
# (§2) Analysis: The data from the scintillation counter were used to calculate either the % inhibition compared to control binding (when only a single concentration of test compound was evaluated) or a Ki value (when a range of concentrations was tested). Percent inhibition was calculated as: [(total dpm−test compound dpm)/(total dpm−nonspecific dpm)]*100. Kd and Ki values were calculated using GraphPad PRISM data analysis program.
# [2] = target: T2, delta opioid receptor (NG108-15 cell membranes) (Mus musculus, UniProt P32300); assay: [35S]GTPγS binding assay in NG108-15 cell membranes (delta opioid); type: biochemical; settings: for EC50: delta GTPγS binding EC50 (nM); for pEC50: read-out: delta GTPγS binding EC50
# T2 construct: NG108-15 cell membranes were purchased from Applied Cell Sciences (Rockville, Md.); host or cells: NG108-15 cell membranes (purchased)
# Experimental: Functional Assay: [^35S]GTPγS Binding Assay in NG108-15 Cell Membranes (Delta Opioid)
# Methods: NG108-15 cell membranes were purchased from Applied Cell Sciences (Rockville, Md.). A sample (8 mg/mL) of membrane protein suspended in 10 mM TRIS-HCl pH 7.2, 2 mM EDTA, 10% sucrose. Membranes were maintained at 4-8° C. A 1 mL volume of membranes was added into 10 mL cold binding assay buffer. The assay buffer contained 50 mM Tris, pH 7.6, 5 mM MgCl2, 100 mM NaCl, 1 mM DTT and 1 mM EGTA. The membrane suspension was homogenized twice with a Polytron, and centrifuged at 3000 rpm for 10 min. The supernatant was then centrifuged at 18,000 rpm for 20 min. Ten mL assay buffer was added into the pellet containing tube. The pellet and buffer were mixed with a Polytron.
# Incubation procedure: The pellet membranes (75 μg/mL) were preincubated with SPA (10 mg/mL) at 25° C. for 45 min in the assay buffer. The SPA (5 mg/mL) coupled with membranes (37.5 μg/mL) was then incubated with 0.1 nM [^35S]GTPγS in the same Tris buffer containing 100 μM GDP in total volume of 200 μL. Increasing concentrations of receptor agonists were used to stimulate [^35S]-GTPγS binding. The basal binding was tested in the absence of agonists and non-specific binding was tested in the presence of 10 μM unlabeled GTPγS. The data were analyzed on a Packard Top Count.
# % of Basal=(stimulated−non specific)*100/(basal−non specific).
# (§3) EC50 values were calculated using GraphPad Prism.
# [3] = target: T3, hMOR (CHO-hMOR cell membranes) (Homo sapiens, UniProt P35372); assay: [35S]GTPγS binding assay in CHO-hMOR cell membranes; type: biochemical
# T3 construct: host or cells: CHO cells expressing hMOR (purchased membranes)
# Experimental: Functional Assay: [^35S]GTPγS Binding Assays in CHO-hMOR Cell Membranes
# Methods: CHO-hMOR cell membranes were purchased from Receptor Biology, Inc. (Baltimore, Md.). About 10 mg/mL of membrane protein was suspended in 10 mM TRIS-HCl pH 7.2, 2 mM EDTA, 10% sucrose, and the suspension kept on ice. A 1 mL volume of membranes was added to 15 mL cold binding assay buffer containing 50 mM HEPES, pH 7.6, 5 mM MgCl2, 100 mM NaCl, 1 mM DTT and 1 mM EDTA. The membrane suspension was homogenized with a Polytron and centrifuged at 3,000 rpm for 10 min. The supernatant was then centrifuged at 18,000 rpm for 20 min. The pellet was resuspended in 10 mL assay buffer with a Polytron. The membranes were preincubated with wheat germ agglutinin coated SPA beads (Amersham) at 25° C. for 45 min in the assay buffer. The SPA bead (5 mg/mL) coupled membranes (10 μg/mL) were then incubated with 0.5 nM [^35S]GTPγS in the assay buffer. […] A range of concentrations of receptor agonist was used to stimulate [^35S]GTPγS binding. Both basal and non-specific binding was tested in the absence of agonist; non-specific binding determination included 10 μM unlabeled GTPγS.
# Compounds were tested for function as antagonists by evaluating their potential to inhibit agonist-stimulated GTPγS binding. Radioactivity was quantified on a Packard TopCount. The following parameters were calculated:
# as §3
# [4] = target: T4, mu opioid receptor (Rattus norvegicus, UniProt P33535); assay: Rat brain mu opioid receptor binding assay; settings: rat forebrain membranes, [3H]DAMGO, 25° C., 2.5 h
# T4 construct: the forebrains were homogenized in Tris buffer in a Teflon®-glass homogenizer; from tissue; host or cells: forebrain of male Wistar rats (particulate membrane preparation)
# Experimental: Rat Brain Mu Opioid Receptor Binding Assay
# as §1
# as §2, with “concentrations” for “concentrations was”
# [5] = rDOR (Ki, nM): Rat delta opioid receptor binding constant
# [6] = rMOR (Ki, nM): Rat mu opioid receptor binding constant
# [7] = read-out: rDOR (Ki, nM): Rat delta opioid receptor binding constant
# [8] = CHO-hMOR cell membranes, read-out: mu GTPγS binding EC50
# [9] = read-out: rMOR (Ki, nM): Rat mu opioid receptor binding constant
# T1 sequence (P33533 whole entry): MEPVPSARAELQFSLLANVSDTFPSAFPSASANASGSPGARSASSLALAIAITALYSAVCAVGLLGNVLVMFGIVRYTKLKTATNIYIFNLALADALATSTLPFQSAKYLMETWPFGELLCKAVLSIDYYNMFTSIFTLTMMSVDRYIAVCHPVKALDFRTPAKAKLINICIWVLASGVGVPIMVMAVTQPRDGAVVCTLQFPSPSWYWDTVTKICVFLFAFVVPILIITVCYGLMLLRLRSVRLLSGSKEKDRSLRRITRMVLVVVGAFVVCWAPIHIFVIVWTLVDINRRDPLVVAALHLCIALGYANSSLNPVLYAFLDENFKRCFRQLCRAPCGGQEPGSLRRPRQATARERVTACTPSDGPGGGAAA
# T3 sequence (P35372 whole entry): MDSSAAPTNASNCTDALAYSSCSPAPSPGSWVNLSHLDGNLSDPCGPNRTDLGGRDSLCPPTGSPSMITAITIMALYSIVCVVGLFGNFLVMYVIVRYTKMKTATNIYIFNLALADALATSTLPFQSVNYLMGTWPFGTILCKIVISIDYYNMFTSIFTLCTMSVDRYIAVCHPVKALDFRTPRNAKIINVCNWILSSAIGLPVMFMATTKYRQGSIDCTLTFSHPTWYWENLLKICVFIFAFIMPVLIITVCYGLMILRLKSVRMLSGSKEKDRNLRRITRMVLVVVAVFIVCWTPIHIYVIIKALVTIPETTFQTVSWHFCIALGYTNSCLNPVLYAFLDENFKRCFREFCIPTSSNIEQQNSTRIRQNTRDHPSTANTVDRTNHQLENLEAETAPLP
# T2 sequence (P32300 whole entry): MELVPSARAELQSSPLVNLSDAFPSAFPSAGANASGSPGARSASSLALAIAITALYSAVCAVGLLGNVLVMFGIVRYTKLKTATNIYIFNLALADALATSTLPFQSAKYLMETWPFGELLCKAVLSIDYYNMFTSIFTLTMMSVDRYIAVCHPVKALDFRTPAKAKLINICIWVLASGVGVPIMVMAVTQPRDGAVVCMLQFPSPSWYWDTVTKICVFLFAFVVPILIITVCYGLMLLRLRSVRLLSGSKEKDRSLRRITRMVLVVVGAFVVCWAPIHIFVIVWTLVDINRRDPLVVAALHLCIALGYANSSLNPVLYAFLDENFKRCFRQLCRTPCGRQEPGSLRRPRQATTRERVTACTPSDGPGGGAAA
# T4 sequence (P33535 whole entry): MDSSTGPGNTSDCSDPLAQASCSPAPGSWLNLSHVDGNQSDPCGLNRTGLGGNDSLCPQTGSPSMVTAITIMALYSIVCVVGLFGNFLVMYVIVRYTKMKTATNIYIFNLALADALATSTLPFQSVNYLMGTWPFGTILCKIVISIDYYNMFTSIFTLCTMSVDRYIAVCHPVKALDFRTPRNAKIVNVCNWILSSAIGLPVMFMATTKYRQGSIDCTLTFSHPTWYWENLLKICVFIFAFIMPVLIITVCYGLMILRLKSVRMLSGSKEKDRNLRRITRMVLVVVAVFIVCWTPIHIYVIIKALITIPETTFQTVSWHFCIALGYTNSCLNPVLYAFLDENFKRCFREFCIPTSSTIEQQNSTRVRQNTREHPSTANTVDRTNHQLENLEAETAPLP
compound,measurement,setting,value
"Oc1cccc2c1Oc1ccccc1C2=C1CC2CCC(C1)N2Cc1ccccn1 [Cpd 21, 9-(8-pyridin-2-ylmethyl-8-azabicyclo[3.2.1]oct-3-ylidene)-9H-xanthen-4-ol]",Ki,[1]; [5],0.007 nM
same,EC50,[2],21.8 nM
same,pEC50,[3],< 5.00
same,Ki,[4]; [6],0.1 nM
Oc1cccc2c1Oc1ccccc1C2=C1CC2CCC(C1)N2Cc1ccncc1 [Cpd 22],Ki,[1]; [7],0.97 nM
same,pEC50,[2],5.57
same,pEC50,[3]; [8],< 5.00
same,Ki,[4]; [9],358 nM
Oc1cc(CN2C3CCC2CC(=C2c4ccccc4Oc4c(O)cccc42)C3)ccn1 [Cpd 23],Ki,[1]; [7],1.5 nM
same,pEC50,[2],7.28
same,pEC50,[3]; [8],4.91
same,Ki,[4]; [9],2.18 nM
Oc1cccc2c1Oc1ccccc1C2=C1CC2CCC(C1)N2Cc1cccs1 [Cpd 24],Ki,[1]; [7],0.046 nM
same,pEC50,[2],8.22
same,pEC50,[3]; [8],< 5.00
same,Ki,[4]; [9],1.58 nM
"Oc1cccc2c1Oc1ccccc1C2=C1CC2CCC(C1)N2Cc1ccoc1 [Cpd 25, 9-(8-Furan-3-ylmethyl-8-aza-bicyclo[3.2.1]oct-3-ylidene)-9H-xanthen-4-ol]",Ki,[1]; [5],0.26 nM
same,EC50,[2],1.08 nM
same,pEC50,[3],5.55
same,Ki,[4]; [6],0.56 nM
Oc1cccc2c1Oc1ccccc1C2=C1CC2CCC(C1)N2CC1CC1 [Cpd 26],Ki,[1]; [7],5.43 nM
same,pEC50,[2],6.71
same,pEC50,[3]; [8],< 5.00
same,Ki,[4]; [9],65.9 nM
CC=C(C)CN1C2CCC1CC(=C1c3ccccc3Oc3c(O)cccc31)C2 [Cpd 27],Ki,[1]; [7],0.35 nM
same,pEC50,[2],8.01
same,pEC50,[3]; [8],< 5.00
same,Ki,[4]; [9],2.03 nM
Oc1cccc2c1Oc1ccccc1C2=C1CC2CCC(C1)N2Cc1c[nH]c(-c2ccccc2)n1 [Cpd 28],Ki,[1]; [7],192 nM
same,pEC50,[2],5.86
same,pEC50,[3]; [8],< 5.00
same,Ki,[4]; [9],58.5 nM
Oc1cccc2c1Oc1ccccc1C2=C1CC2CCC(C1)N2CCc1ccccc1 [Cpd 30],Ki,[1]; [7],63.5 nM
same,pEC50,[2],5.53
same,pEC50,[3]; [8],< 5.00
same,Ki,[4]; [9],27.7 nM
"Oc1cccc2c1Oc1ccccc1C2=C1CC2CCC(C1)N2Cc1cccnc1 [Cpd 31, 9-(8-pyridin-3-ylmethyl-8-azabicyclo[3.2.1]oct-3-ylidene)-9H-xanthen-4-ol]",Ki,[1]; [5],0.028 nM
same,pEC50,[2],6.87
same,pEC50,[3]; [8],5.09
same,Ki,[4]; [6],1.23 nM
"Oc1cccc2c1Oc1ccccc1C2=C1CC2CCC(C1)N2Cc1ccccc1 [Cpd 32, 9-(8-benzyl-8-azabicyclo[3.2.1]oct-3-ylidene)-9H-xanthen-4-ol]",Ki,[1]; [5],0.023 nM
same,EC50,[2],28.6 nM
same,pEC50,[3],< 5.00
same,Ki,[4]; [6],0.29 nM
Oc1cccc2c1Oc1ccccc1C2=C1CC2CCC(C1)N2Cc1ncc[nH]1 [Cpd 34],Ki,[1]; [7],0.028 nM
same,pEC50,[2],8.48
same,pEC50,[3]; [8],5.79
same,Ki,[4]; [9],0.53 nM
